Our source for the IC50 values is patent publication US9242981B2, “Fused pyrazole derivatives as novel ERK inhibitors” (Merck Sharp & Dohme Corp., priority 2010, dated 2016).

Molecules are shown by their SMILES.

Mouse ERK2 protein, sequence (P63085 whole entry): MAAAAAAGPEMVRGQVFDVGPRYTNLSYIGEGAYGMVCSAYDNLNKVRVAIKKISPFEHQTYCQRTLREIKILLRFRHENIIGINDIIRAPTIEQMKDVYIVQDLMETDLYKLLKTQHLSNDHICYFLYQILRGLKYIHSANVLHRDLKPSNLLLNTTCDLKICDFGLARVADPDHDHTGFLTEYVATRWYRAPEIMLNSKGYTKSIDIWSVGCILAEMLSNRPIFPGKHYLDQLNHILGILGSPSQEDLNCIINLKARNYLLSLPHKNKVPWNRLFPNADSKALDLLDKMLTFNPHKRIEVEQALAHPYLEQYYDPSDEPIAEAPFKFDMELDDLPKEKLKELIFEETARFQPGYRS

This experiment addresses Mouse ERK2 protein (Mus musculus (Mouse), UniProt P63085). Put plainly: Coupled MEK1/ERK2 IMAP assay or Active ERK2 IMAP assay. The experiment is classed as biochemical. As to conditions: Table 1, class symbols, 30 μM ATP.
For the molecule `Cc1cc(-c2n[nH]c3c2CN(C(=O)NC2CC(C)CN(Cc4cnc5ccccc5c4)C2)CC3)ccn1` (stereo not shown) [Compound 96, 1,4,6,7-tetrahydro-3-(2-methyl-4-pyridinyl)-N-[5-methyl-1-(3-quinolinylmethyl)-3-piperidinyl]-5H-pyrazolo[4,3-c]pyridine-5-carboxamide], the half-maximal inhibitory concentration (IC50) was in the range of 0.101 to 1 µM.

In the case of `COc1ccc2ccccc2c1CN1CCC[C@@H](NC(=O)N2CCc3[nH]nc(-c4ccnc(C)c4)c3C2)C1` [Compound 97, 1,4,6,7-tetrahydro-N-[1-[(2-Methoxy-1-naphthalenyl)-methyl]-3(R)-piperidinyl]-3-(2-methyl-4-pyridinyl)-5H-pyrazolo[4,3-c]pyridine-5-carboxamide], the IC50 was 0.021 to 0.1 µM.

Take `Cc1cc(-c2n[nH]c3c2CN(C(=O)N[C@@H]2CCCN(Cc4ccnc5ccccc45)C2)CC3)ccn1` [Compound 98]: the IC50 was in the range of 0.101 to 1 µM.

The molecule `COc1ccc(CN2CCC[C@@H](NC(=O)N3CCc4[nH]nc(-c5ccnc(C)c5)c4C3)C2)c2ccccc12` [Compound 99, 1,4,6,7-tetrahydro-N-[1-[(4-Methoxy-1-naphthalenyl)-methyl]-3(R)-piperidinyl]-3-(2-methyl-4-pyridinyl)-5H-pyrazolo[4,3-c]pyridine-5-carboxamide] showed an IC50 of 0.021 to 0.1 µM.

`Cc1cc(-c2n[nH]c3c2CN(C(=O)NC2CC(C)CN(Cc4csc5ccccc45)C2)CC3)ccn1` (stereo not shown) [Compound 101, N-[1-(benzo[b]thien-3-ylmethyl)-5-methyl-3-piperidinyl]-1,4,6,7-tetrahydro-3-(2-methyl-4-pyridinyl)-5H-pyrazolo[4,3-c]pyridine-5-carboxamide]: the IC50 lay within 0.021 to 0.1 µM.

As for `Cc1cc(-c2n[nH]c3c2CN(C(=O)NC2CC(C)CN(Cc4cc5ccccc5n4C)C2)CC3)ccn1` (stereo not shown) [Compound 102, 1,4,6,7-tetrahydro-N-[5-methyl-1-[(1-methyl-1H-indol-2-yl)methyl]-3-piperidinyl]-3-(2-methyl-4-pyridinyl)-5H-pyrazolo[4,3-c]pyridine-5-carboxamide], the IC50 was in the range of 0.021 to 0.1 µM.

The molecule `Cc1cc(-c2n[nH]c3c2CN(C(=O)NC2CC(C)CN(Cc4ccccc4Cl)C2)CC3)ccn1` (stereo not shown) [Compound 103, N-[1-[(2-chlorophenyl)methyl]-5-methyl-3-piperidinyl]-1,4,6,7-tetrahydro-3-(2-methyl-4-pyridinyl)-5H-pyrazolo[4,3-c]pyridine-5-carboxamide] had an IC50 of 0.021 to 0.1 µM.

`Cc1cc(-c2n[nH]c3c2CN(C(=O)NC2CC(C)CN(Cc4ccc5ccccc5n4)C2)CC3)ccn1` (stereo not drawn) [Compound 104, 1,4,6,7-tetrahydro-3-(2-methyl-4-pyridinyl)-N-[5-methyl-l-(2-quinolinylmethyl)-3-piperidinyl]-5H-pyrazolo[4,3-c]pyridine-5-carboxamide]: the IC50 is 0.021 to 0.1 µM.

`Cc1cc(-c2n[nH]c3c2CN(C(=O)NC2CCC(c4ccccc4)NC2)CC3)ccn1` (stereo not shown) [Compound 105, 1,4,6,7-tetrahydro-3-(2-methyl-4-pyridinyl)-N-(6-phenyl-3-piperidinyl)-5H-pyrazolo[4,3-c]pyridine-5-carboxamide] registered an IC50 of 0.101 to 1 µM.

Molecule `Cc1cc(-c2n[nH]c3c2CN(C(=O)NC2CCC(c4ccccc4)N(Cc4c(F)cccc4F)C2)CC3)ccn1` (stereo not shown) [Compound 106, N-[1-[(2,6-difluorophenyl)-methyl]-6-phenyl-3-piperidinyl]-1,4,6,7-tetrahydro-3-(2-methyl-4-pyridinyl)-5H-pyrazolo[4,3-c]pyridine-5-carboxamide] came in with an IC50 of 0.101 to 1 µM.

For the molecule `O=C(NC1CC2CC1N(Cc1c(F)cccc1F)C2)N1CCc2[nH]nc(-c3ccncc3)c2C1` (stereo not shown) [Compound 107, N-[2-[(2,6-difluorophenyl)-methyl]-2-azabicyclo[2.2.1]-hept-6-yl]-1,4,6,7-tetrahydro-3-(4-pyridinyl)-5H-pyrazolo[4,3-c]pyridine-5-carboxamide], the IC50 lay in the range of 0.101 to 1 µM.

The molecule `COc1cccc(F)c1CN1CC2CC(NC(=O)N3CCc4[nH]nc(-c5ccncc5)c4C3)C1C2` (stereo not shown) [Compound 108, N-[2-[(2-fluoro-6-methoxyphenyl)methyl]-2-azabicyclo[2.2.1]hept-6-yl]-1,4,6,7-tetrahydro-3-(4-pyridinyl)-5H-pyrazolo[4,3-c]pyridine-5-carboxamide] came in with an IC50 of 0.101 to 1 µM.

With `O=C(N[C@@H]1CCCN(Cc2c(F)cccc2F)C1)N1CCc2[nH]nc(-c3ccc4nccn4c3)c2C1` [Compound 111, N-[1-[(2,6-difluorophenyl)-methyl]-3(R)-piperidinyl]-1,4,6,7-tetrahydro-3-(imidazo[1,2-a]pyridin-6-yl)-5H-pyrazolo[4,3-c]pyridine-5-carboxamide], the IC50 is under 0.02 µM.

`O=C(NC1CC(O)CN(Cc2ccccc2Cl)C1)N1CCc2[nH]nc(-c3ccncc3)c2C1` (stereo not shown) [Compound 114, N-[1-[(2-chlorophenyl)-methyl]-5-hydroxy-3-piperidinyl]-1,4,6,7-tetrahydro-3-(4-pyridinyl)-5H-pyrazolo[4,3-c]pyridine-5-carboxamide] gave an IC50 of under 0.02 µM.

For `Cc1cc(-c2n[nH]c3c2CN(C(=O)N[C@@H]2CCN(Cc4c(F)cccc4F)C2)CC3)ccn1` [Compound 115, N-[1-[(2,6-difluorophenyl)-methyl]-3(R)-pyrrolidinyl]-1,4,6,7-tetrahydro-3-(2-methyl-4-pyridinyl)-5H-pyrazolo[4,3-c]pyridine-5-carboxamide], the IC50 is 0.101 to 1 µM.

Turning to `COc1cccc(F)c1CN1CC[C@@H](NC(=O)N2CCc3[nH]nc(-c4ccnc(C)c4)c3C2)C1` [Compound 116, N-[1-[(2-fluoro-6-methoxyphenyl)methyl]-3(R)-pyrrolidinyl]-1,4,6,7-tetrahydro-3-(2-methyl-4-pyridinyl)-5H-pyrazolo[4,3-c]pyridine-5-carboxamide], the 50% inhibitory concentration (IC50) is 0.021 to 0.1 µM.

The molecule `Cc1cc(-c2n[nH]c3c2CN(C(=O)N[C@@H]2CCN(Cc4c(F)cccc4Cl)C2)CC3)ccn1` [Compound 117, N-[1-[(2-chloro-6-fluorophenyl)methyl]-3(R)-pyrrolidinyl]-1,4,6,7-tetrahydro-3-(2-methyl-4-pyridinyl)-5H-pyrazolo[4,3-c]pyridine-5-carboxamide] yielded an IC50 of 0.021 to 0.1 µM.

For the molecule `Cc1cc(-c2n[nH]c3c2CN(C(=O)N[C@@H]2CCN(Cc4ccccc4Cl)C2)CC3)ccn1` [Compound 118, N-[1-[(2-chlorophenyl)-methyl]-3(R)-pyrrolidinyl]-1,4,6,7-tetrahydro-3-(2-methyl-4-pyridinyl)-5H-pyrazolo[4,3-c]pyridine-5-carboxamide], the IC50 lay within 0.021 to 0.1 µM.

Molecule `Cc1cc(-c2n[nH]c3c2CN(C(=O)N[C@@H]2CCN(Cc4c(C)cccc4C)C2)CC3)ccn1` [Compound 119, N-[1-[(2,6-dimethylphenyl)-methyl]-3(R)-pyrrolidinyl]-1,4,6,7-tetrahydro-3-(2-methyl-4-pyridinyl)-5H-pyrazolo[4,3-c]pyridine-5-carboxamide] had an IC50 of 0.021 to 0.1 µM.

For `Cc1cc(-c2n[nH]c3c2CN(C(=O)N[C@@H]2CCN(Cc4csc5ccccc45)C2)CC3)ccn1` [Compound 120, N-[1-(benzo[b]thien-3-ylmethyl)-3(R)-pyrrolidinyl]-1,4,6,7-tetrahydro-3-(2-methyl-4-pyridinyl)-5H-pyrazolo[4,3-c]pyridine-5-carboxamide], the IC50 is under 0.02 µM.

In turn, `COc1cccc(F)c1CN1CC(NC(=O)N2CCc3[nH]nc(-c4ccnc(C)c4)c3C2)CCC1C` (stereo not shown) [Compound 121, N-[1-[(2-fluoro-6-methoxyphenyl)methyl]-6-methyl-3-piperidinyl]-1,4,6,7-tetrahydro-3-(2-methyl-4-pyridinyl)-5H-pyrazolo[4,3-c]pyridine-5-carboxamide] returned an IC50 of 0.021 to 0.1 µM.

`COc1cccc(F)c1CN1CCCC(NC(=O)N2CCc3[nH]nc(-c4ccnc(C)c4)c3C2)C1C` (stereo not shown) [Compound 122, N-[1-[(2-fluoro-6-methoxyphenyl)methyl]-2-methyl-3-piperidinyl]-1,4,6,7-tetrahydro-3-(2-methyl-4-pyridinyl)-5H-pyrazolo[4,3-c]pyridine-5-carboxamide] registered an IC50 of 0.101 to 1 µM.

As to `COc1ccc(-c2n[nH]c3c2CN(C(=O)N[C@@H]2CCCN(Cc4c(C)cccc4C)C2)CC3)cc1F` [Compound 124, N-[1-[(2,6-dimethylphenyl)-methyl]-3(R)-piperidinyl]-3-(3-fluoro-4-methoxyphenyl)-1,4,6,7-tetrahydro-5H-pyrazolo[4,3-c]pyridine-5-carboxamide], the IC50 lay within 0.021 to 0.1 µM.

For `COc1ccc(-c2n[nH]c3c2CN(C(=O)N[C@@H]2CCCN(Cc4c(C)cccc4C)C2)CC3)cn1` [Compound 125, N-[1-[(2,6-dimethylphenyl)-methyl]-3(R)-piperidinyl]-1,4,6,7-tetrahydro-3-(6-Methoxy-3-pyridinyl)-5H-pyrazolo[4,3-c]pyridine-5-carboxamide], the IC50 lay within 0.021 to 0.1 µM.

`Cc1cccc(C)c1CN1CCC[C@@H](NC(=O)N2CCc3[nH]nc(-c4ccc5nn(C)cc5c4)c3C2)C1` [Compound 126, N-[1-[(2,6-dimethylphenyl)-methyl]-3(R)-piperidinyl]-1,4,6,7-tetrahydro-3-(2-methyl-2H-indazol-5-yl)-5H-pyrazolo[4,3-c]pyridine-5-carboxamide] gave an IC50 of under 0.02 µM.

For `Cc1cccc(C)c1CN1CCC[C@@H](NC(=O)N2CCc3[nH]nc(-c4ccc5c(cnn5C)c4)c3C2)C1` [Compound 127, N-[1-[(2,6-dimethylphenyl)-methyl]-3(R)-piperidinyl]-1,4,6,7-tetrahydro-3-(1-methyl-1H-inclazol-5-yl)-5H-pyrazolo[4,3-c]pyridine-5-carboxamide], the IC50 was under 0.02 µM.

`O=C(N[C@@H]1CCN(Cc2csc3ccccc23)C1)N1CCc2[nH]nc(-c3ccc(-c4ccccc4)nc3)c2C1` [Compound 129, N-[1-(benzo[b]thien-3-ylmethyl)-3(R)-pyrrolidinyl]-1,4,6,7-tetrahydro-3-(6-phenyl-3-pyridinyl)-5H-pyrazolo[4,3-c]pyridine-5-carboxamide] gave an IC50 of 0.101 to 1 µM.

`O=C(N[C@@H]1CCCN(Cc2c(F)cccc2F)C1)N1CCc2[nH]nc(-c3ccc4ncccc4c3)c2C1` [Compound 130, N-[1-[(2,6-difluorophenyl)-methyl]-3(R)-piperidinyl]-1,4,6,7-tetrahydro-3-(6-quinolinyl)-5H-pyrazolo[4,3-c]pyridine-5-carboxamide]: the IC50 fell in the range of 0.021 to 0.1 µM.

In general, IC50 refers to the concentration that gives 50% inhibition. Low values mean higher potency, high ones lower potency.
